Assay results published in US8815872B2, “Macrocyclics pyrimidines as aurora kinase inhibitors” (Merck Patent GmbH, priority 2008, dated 2014).
Blank lines part the entries; values can stand above or below the molecule they belong to.

Columns and labels:
Plk3(h) = target: T1, Plk3(h) (Homo sapiens, UniProt Q9H4B4); assay: Other kinases, single-concentration inhibition (Table 3); type: biochemical; conditions: 1 μM
T1 construct: purchased Caliper Life Sciences
Outline: (§1)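 Mobility-shift readout (Caliper Desktop Profiler): substrate and phosphopeptide resolved electrophoretically from fluorescent label. Compounds tested at a single concentration, 90 min at 25 °C with labelled peptide and ATP. Percent inhibition relative to no-inhibitor and no-ATP wells.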

SIK(h) = target: T2, SIK(h) (Homo sapiens, UniProt P57059); assay: as above; type: biochemical; conditions: 1 μM
T2 construct: purchased Caliper Life Sciences
Outline: as §1

Plk1(h) = target: T3, Plk1(h) (Homo sapiens, UniProt P53350); assay: as above; type: biochemical; conditions: 1 μM
T3 construct: purchased Caliper Life Sciences
Outline: as §1

c-RAF(h) = target: T4, c-RAF(h) (Homo sapiens, UniProt P04049); assay: as above; type: biochemical; conditions: 1 μM
T4 construct: purchased Caliper Life Sciences
Outline: as §1

CHK1(h) = target: T5, CHK1(h) (Homo sapiens, UniProt O14757); assay: as above; type: biochemical; conditions: 1 μM
T5 construct: purchased Caliper Life Sciences
Outline: as §1

CDK2/cyclinA(h) = target: T6, CDK2/cyclinA(h) (Homo sapiens, UniProt P24941); assay: as above; type: biochemical; conditions: 1 μM
T6 construct: purchased Caliper Life Sciences
Outline: as §1

p70S6K(h) = target: T7, p70S6K(h) (Homo sapiens, UniProt P23443); assay: as above; type: biochemical; conditions: 1 μM
T7 construct: purchased Caliper Life Sciences
Outline: as §1

CHK2(h) = target: T8, CHK2(h) (Homo sapiens, UniProt O96017); assay: as above; type: biochemical; conditions: 1 μM
T8 construct: purchased Caliper Life Sciences
Outline: as §1

FGFR1(h) = target: T9, FGFR1(h) (Homo sapiens, UniProt P11362); assay: as above; type: biochemical; conditions: 1 μM
T9 construct: purchased Caliper Life Sciences
Outline: as §1

Fms(h) = target: T10, Fms(h) (Homo sapiens, UniProt P07333); assay: as above; type: biochemical; conditions: 1 μM
T10 construct: purchased Caliper Life Sciences
Outline: as §1

cSRC(h) = target: T11, cSRC(h) (Homo sapiens, UniProt P12931); assay: as above; type: biochemical; conditions: 1 μM
T11 construct: purchased Caliper Life Sciences
Outline: as §1

Yes(h) = target: T12, Yes(h) (Homo sapiens, UniProt P07947); assay: as above; type: biochemical; conditions: 1 μM
T12 construct: purchased Caliper Life Sciences
Outline: as §1

PDGFRα(h) = target: T13, PDGFRα(h) (Homo sapiens, UniProt P16234); assay: as above; type: biochemical; conditions: 1 μM
T13 construct: purchased Caliper Life Sciences
Outline: as §1

Lyn(h) = target: T14, Lyn(h) (Homo sapiens, UniProt P07948); assay: as above; type: biochemical; conditions: 1 μM
T14 construct: purchased Caliper Life Sciences
Outline: as §1

Flt4(h) = target: T15, Flt4(h) (Homo sapiens, UniProt P35916); assay: as above; type: biochemical; conditions: 1 μM
T15 construct: purchased Caliper Life Sciences
Outline: as §1

DDR2(h) = target: T16, DDR2(h) (Homo sapiens, UniProt Q16832); assay: as above; type: biochemical; conditions: 1 μM
T16 construct: purchased Caliper Life Sciences
Outline: as §1

Abl(T315I)(h) = target: T17, Abl(T315I)(h) (Homo sapiens, UniProt P00519, T315I); assay: Inhibition of other kinases IC50 (Table 2); type: biochemical
T17 construct: purchased Caliper Life Sciences
Outline: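 Kinase activity was measured by microfluidic mobility-shift separation of phosphorylated and unphosphorylated fluorescently labelled substrate peptide at the end of the enzymatic reaction. Product and substrate were resolved by their charge difference and detected by fluorescence.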

NEK6 = target: T18, NEK6 (Homo sapiens, UniProt Q9HC98); assay: Other kinases, inhibition at 1 μM (Table 3); type: biochemical
T18 construct: purchased Caliper Life Sciences
Outline: as §1

[1] = from C=CCOc1cccc(Nc2ncc(F)c(N[C@H]3[C@@H](C(N)=O)[C@@H]4C=C[C@H]3C4)n2)c1; rcm bond; Grubbs 2nd generation; dichloromethane; 19.2 mM; 40.0 °C; 3.0 h

T15 sequence (P35916 25-1363): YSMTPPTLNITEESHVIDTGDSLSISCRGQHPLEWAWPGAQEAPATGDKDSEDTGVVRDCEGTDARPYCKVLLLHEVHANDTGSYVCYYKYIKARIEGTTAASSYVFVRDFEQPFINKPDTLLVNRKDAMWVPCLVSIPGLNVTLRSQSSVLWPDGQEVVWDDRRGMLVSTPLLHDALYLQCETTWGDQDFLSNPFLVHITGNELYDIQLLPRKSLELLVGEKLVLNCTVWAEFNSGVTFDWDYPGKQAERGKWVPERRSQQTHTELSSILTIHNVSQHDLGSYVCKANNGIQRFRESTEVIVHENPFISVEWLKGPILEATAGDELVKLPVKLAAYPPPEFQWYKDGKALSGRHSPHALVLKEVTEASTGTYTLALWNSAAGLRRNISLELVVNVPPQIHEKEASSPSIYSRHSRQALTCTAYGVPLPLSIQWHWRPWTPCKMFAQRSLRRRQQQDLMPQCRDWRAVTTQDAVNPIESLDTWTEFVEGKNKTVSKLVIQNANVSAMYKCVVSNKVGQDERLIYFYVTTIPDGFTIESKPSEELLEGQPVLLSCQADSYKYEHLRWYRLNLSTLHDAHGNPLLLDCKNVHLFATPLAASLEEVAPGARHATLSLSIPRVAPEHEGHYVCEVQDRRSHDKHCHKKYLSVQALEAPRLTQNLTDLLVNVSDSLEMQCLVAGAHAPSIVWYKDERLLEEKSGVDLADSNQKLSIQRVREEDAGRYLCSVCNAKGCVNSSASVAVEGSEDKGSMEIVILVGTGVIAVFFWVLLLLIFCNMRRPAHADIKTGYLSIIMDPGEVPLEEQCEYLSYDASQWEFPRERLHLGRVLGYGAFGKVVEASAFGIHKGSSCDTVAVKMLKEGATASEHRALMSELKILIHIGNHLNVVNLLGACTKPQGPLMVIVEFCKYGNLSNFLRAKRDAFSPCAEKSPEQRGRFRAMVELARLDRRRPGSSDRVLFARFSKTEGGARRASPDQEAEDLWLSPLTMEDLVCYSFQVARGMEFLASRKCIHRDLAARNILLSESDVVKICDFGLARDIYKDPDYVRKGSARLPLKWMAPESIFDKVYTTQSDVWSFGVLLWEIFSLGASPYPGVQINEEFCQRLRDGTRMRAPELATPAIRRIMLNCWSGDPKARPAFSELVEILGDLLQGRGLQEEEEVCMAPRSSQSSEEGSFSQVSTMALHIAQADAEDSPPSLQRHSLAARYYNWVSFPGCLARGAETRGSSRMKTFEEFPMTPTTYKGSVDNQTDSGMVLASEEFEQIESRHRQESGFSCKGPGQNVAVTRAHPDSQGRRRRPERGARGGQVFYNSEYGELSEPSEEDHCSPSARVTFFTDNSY
T16 sequence (Q16832 22-855): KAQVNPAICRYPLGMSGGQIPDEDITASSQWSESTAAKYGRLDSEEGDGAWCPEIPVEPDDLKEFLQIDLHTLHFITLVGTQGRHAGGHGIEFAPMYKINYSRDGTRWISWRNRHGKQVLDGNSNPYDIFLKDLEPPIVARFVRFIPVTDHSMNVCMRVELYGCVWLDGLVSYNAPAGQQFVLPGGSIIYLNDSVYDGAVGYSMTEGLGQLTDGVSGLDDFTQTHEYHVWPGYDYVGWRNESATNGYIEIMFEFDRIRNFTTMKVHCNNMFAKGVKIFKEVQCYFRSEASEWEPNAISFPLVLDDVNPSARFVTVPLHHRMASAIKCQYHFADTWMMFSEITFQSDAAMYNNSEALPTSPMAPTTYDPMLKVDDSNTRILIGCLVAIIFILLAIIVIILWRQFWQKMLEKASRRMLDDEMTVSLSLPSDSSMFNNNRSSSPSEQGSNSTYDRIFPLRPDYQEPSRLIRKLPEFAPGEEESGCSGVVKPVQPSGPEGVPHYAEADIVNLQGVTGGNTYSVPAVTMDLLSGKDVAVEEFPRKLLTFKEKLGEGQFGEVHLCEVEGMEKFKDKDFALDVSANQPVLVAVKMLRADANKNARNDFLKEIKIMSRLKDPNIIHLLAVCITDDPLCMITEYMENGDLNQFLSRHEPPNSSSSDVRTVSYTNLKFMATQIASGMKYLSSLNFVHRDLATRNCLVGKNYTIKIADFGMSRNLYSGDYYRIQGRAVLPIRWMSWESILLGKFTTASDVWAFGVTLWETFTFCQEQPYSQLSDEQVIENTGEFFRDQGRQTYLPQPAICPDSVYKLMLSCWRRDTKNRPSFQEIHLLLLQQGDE
T14 sequence (P07948 whole entry): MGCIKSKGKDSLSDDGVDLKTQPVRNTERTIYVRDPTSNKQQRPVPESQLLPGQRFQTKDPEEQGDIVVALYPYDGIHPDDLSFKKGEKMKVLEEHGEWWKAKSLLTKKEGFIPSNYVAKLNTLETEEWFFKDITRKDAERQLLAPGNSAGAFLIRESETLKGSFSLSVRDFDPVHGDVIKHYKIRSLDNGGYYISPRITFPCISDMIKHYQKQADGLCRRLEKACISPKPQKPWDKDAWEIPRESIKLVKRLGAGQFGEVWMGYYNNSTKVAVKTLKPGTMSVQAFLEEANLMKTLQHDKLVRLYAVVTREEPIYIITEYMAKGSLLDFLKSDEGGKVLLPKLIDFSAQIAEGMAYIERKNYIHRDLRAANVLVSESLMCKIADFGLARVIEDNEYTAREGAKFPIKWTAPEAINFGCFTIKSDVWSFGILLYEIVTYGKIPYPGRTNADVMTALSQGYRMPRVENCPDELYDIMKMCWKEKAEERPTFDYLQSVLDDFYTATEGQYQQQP
T9 sequence (P11362 22-822): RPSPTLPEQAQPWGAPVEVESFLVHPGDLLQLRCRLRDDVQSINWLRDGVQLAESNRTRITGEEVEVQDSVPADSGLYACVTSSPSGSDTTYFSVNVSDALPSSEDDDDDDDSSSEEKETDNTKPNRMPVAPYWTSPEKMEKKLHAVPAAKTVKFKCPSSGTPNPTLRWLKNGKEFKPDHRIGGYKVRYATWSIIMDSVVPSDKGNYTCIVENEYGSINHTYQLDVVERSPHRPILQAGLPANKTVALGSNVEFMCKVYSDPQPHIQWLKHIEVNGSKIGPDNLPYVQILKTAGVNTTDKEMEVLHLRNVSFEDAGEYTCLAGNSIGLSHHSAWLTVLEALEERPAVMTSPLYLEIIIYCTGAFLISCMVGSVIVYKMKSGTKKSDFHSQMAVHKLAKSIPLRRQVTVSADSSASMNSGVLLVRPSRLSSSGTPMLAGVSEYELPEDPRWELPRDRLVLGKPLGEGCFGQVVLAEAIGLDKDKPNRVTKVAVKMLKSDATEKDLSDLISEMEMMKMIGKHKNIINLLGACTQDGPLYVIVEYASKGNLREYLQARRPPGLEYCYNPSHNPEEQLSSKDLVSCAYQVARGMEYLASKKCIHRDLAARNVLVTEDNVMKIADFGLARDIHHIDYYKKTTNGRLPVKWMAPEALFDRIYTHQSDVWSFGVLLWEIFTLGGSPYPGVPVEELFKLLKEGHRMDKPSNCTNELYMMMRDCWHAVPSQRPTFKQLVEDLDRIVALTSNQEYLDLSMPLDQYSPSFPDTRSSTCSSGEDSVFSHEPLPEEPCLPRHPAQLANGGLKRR
T18 sequence (Q9HC98 whole entry, species assumed): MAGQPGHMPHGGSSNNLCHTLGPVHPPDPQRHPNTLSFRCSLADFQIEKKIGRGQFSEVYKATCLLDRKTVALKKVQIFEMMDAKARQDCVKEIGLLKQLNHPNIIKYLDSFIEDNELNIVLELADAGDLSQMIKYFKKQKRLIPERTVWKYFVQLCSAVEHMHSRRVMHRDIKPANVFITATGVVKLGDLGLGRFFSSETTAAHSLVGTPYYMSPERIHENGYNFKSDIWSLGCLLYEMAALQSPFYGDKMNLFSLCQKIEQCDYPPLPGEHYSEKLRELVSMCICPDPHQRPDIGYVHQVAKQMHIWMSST
T4 sequence (P04049 whole entry): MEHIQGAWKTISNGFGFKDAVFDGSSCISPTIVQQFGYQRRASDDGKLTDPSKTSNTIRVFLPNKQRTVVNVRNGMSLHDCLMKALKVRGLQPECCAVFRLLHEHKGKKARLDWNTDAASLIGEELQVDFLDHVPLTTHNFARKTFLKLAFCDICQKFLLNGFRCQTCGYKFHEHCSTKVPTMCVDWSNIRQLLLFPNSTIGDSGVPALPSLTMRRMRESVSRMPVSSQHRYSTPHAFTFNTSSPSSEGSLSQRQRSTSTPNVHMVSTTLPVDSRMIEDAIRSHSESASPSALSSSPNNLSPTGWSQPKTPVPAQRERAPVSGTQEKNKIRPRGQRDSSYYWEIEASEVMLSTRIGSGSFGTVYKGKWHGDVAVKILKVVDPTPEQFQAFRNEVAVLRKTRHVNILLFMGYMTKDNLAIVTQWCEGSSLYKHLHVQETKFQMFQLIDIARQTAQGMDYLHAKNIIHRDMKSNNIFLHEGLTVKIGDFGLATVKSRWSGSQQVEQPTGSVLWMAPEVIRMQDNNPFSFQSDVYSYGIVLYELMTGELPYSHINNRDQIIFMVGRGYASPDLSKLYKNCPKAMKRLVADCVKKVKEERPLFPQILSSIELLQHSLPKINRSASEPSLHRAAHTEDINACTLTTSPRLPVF
T8 sequence (O96017 whole entry): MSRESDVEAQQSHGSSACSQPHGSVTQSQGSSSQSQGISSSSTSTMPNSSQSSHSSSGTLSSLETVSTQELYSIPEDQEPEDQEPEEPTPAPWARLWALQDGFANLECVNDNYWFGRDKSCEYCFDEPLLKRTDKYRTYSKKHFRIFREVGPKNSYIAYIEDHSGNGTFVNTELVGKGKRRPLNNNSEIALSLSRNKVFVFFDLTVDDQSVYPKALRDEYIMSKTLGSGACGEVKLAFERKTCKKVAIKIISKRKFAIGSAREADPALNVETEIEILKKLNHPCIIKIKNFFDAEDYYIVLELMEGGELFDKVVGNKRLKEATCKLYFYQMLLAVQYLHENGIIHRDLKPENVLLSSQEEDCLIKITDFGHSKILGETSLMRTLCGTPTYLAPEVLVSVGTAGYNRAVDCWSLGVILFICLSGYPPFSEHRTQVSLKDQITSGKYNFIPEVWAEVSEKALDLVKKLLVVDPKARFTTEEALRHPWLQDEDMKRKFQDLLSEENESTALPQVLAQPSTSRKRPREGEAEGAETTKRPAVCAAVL

% inhibition Plk3(h) (Plk3(h)): 104%
% inhibition SIK(h) (SIK(h)): 25%
% inhibition Plk1(h) (Plk1(h)): 87%
% inhibition c-RAF(h) (c-RAF(h)): 107%
% inhibition CHK1(h) (CHK1(h)): 101%
% inhibition CDK2/cyclinA(h) (CDK2/cyclinA(h)): 96%
% inhibition p70S6K(h) (p70S6K(h)): 83%
% inhibition CHK2(h) (CHK2(h)): 64%
% inhibition FGFR1(h) (FGFR1(h)): 5%
% inhibition Fms(h) (Fms(h)): 82%
% inhibition cSRC(h) (cSRC(h)): 16%
% inhibition Yes(h) (Yes(h)): 2%
% inhibition PDGFRα(h) (PDGFRα(h)): 87%
% inhibition Lyn(h) (Lyn(h)): 12%
% inhibition Flt4(h) (Flt4(h)): 11%
% inhibition DDR2(h) (DDR2(h)): 96%
SMILES: CN1CCN(c2ccc3cc2OCCS[C@@H]2C[C@@H]4C[C@H]2[C@@H](Nc2nc(ncc2F)N3)[C@H]4C(N)=O)CC1 [Example 22]

IC50 (Abl(T315I)(h)): 1 to 100 nM
SMILES: NC(=O)[C@H]1[C@H]2C[C@H]3[C@H]1Nc1nc(ncc1F)Nc1cccc(c1)NC(=O)CS[C@@H]3C2 [Example 27]

SMILES: NC(=O)[C@H]1[C@H]2C[C@H]3[C@H]1Nc1nc(ncc1F)Nc1cccc(c1)CSS[C@@H]3C2 [Example 10]
% inhibition NEK6 (NEK6): 93%

SMILES: C=C[C@@H]1C[C@@H]2/C=C/COc3cccc(c3)Nc3ncc(F)c(n3)N[C@H]2[C@H]1C(N)=O (single isomer, unassigned) [Example 3]
ring closure, yield of all isomers [1]: 15%
